Measurements reported in patent US20260258172A1, “CATIONIC POLYMERS WITH SELECTIVE ANTIFUNGAL PROPERTIES” (Uniwersytet Jagiellonski, priority 2022, published 2026).
≈ marks a conversion by molar mass, not a printed value.

How the values were obtained:
Type in all cases: cell-based
[1] = system: Trichophyton tonsurans DSM 12285; assay: Antifungal microdilution MIC test; conditions: DSM12285, comparative test
Method: (§1) In vitro tests of the antifungal activity of the polymers were performed with respect to selected fungal species obtained from international culture collections and the microorganism collection in the Department of Infection Control and Mycology, Chair of Microbiology, Jagiellonian University Medical College. The test was performed using the microdilution method in a liquid medium on flat-bottomed, 96-well polypropylene titration plates. The applied methodology was based on antifungal susceptibility testing procedures developed by the European Committee on Antimicrobial Susceptibility Testing (EUCAST) and on the Hancock Lab procedure for antimicrobial cationic peptides.
(§2) The test compounds were dissolved in sterile distilled water and starting concentrations of 5 g/L were prepared, from which a series of two-fold dilutions in water were obtained. Respective polymer dilutions were transferred in a volume of 20 μL on titration plates (wells 1-10). 20 μL of sterile distilled water was transferred to each of wells 11 and 12. Wells 1-11 were inoculated with fungi in a volume of 180 μL of fungal cell suspensions in a liquid medium, and 180 μL of the sterile medium was transferred to well 12. Fungal suspensions were prepared from fresh cultures on agar media by collecting spores using a sterile swab into sterile distilled water or sterile distilled water with Tween-20 added. Suspensions of certain strains were filtered to remove any hyphal elements (filters with a pore diameter of 20 μm and 10 μm were used). The suspensions were brought to a density of 0.5 on the McFarland scale, and subsequently diluted to 1:20 in a liquid RPMI-1640 medium with L-glutamine and without sodium bicarbonate, supplemented with glucose (2%) and buffered morpholinopropanesulfonic acid (MOPS) (0.165 mol/L).
(§3) Final polymer concentrations on plates after adding fungal suspensions in the liquid medium were 0.49-250 mg/L or 0.98-500 mg/L.
(§4) Incubation was performed at room temperature, 27° C., 37° C., depending on the fungal species, until fungal growth was obtained in growth control (well 11). After the incubation period, fungal growth was evaluated visually and the lowest polymer concentrations that caused complete fungal growth inhibition (MIC (minimal inhibitory concentration) values) were determined.
(§5) A test was performed on selected fungal strains to compare MIC values of the PMAPTAC133 polymer with the MIC values of two known antifungal drugs (terbinafine and ciclopirox), used in the treatment of fungal infections of glabrous skin, hairy skin and nails.
(§6) The procedure described in the section above (Example 8) was used in the testing.
(§7) The drugs were dissolved in dimethyl sulfoxide (DMSO) and starting concentrations of 4 g/L were prepared, from which series of two-fold dilutions in DMSO were obtained. Respective […] concentrations were diluted to 1:100 in sterile water and subsequently transferred to wells 1-10 on a titration plate in a volume of 20 μL. Wells 11 and 12 were filled up with 20 μL DMSO diluted to 1:10 in water. Wells 1-11 were inoculated with fungi in a volume of 180 μL of fungal cell suspensions in a liquid medium, and […] of the sterile medium was transferred to well 12. Final drug concentrations on plates after adding fungal suspensions in the liquid medium were 0.008-4 mg/L.

[2] = system: Aspergillus brasiliensis ATCC 16404; assay: Antifungal microdilution MIC test; conditions: comparative test; for MIC: Aspergillus brasiliensis, ATCC16404
Method: as §1, §2, §3, §4, §5, §6, §7

[3] = system: Trichophyton rubrum D197; assay: Antifungal microdilution MIC test; conditions: comparative test
Method: as §1, §2, §3, §4, §5, §6, §7

[4] = system: Trichophyton rubrum D320; assay: Antifungal microdilution MIC test; conditions: comparative test
Method: as §1, §2, §3, §4, §5, §6, §7

[5] = system: Candida albicans ATCC 90028; assay: Antifungal microdilution MIC test; conditions: ATCC90028, comparative test
Method: as §1, §2, §3, §4, §5, §6, §7

[6] = system: Scopulariopsis brevicaulis DSM 9122; assay: Antifungal microdilution MIC test; conditions: DSM9122, comparative test
Method: as §1, §2, §3, §4, §5, §6, §7

[7] = system: Trichophyton interdigitale D182; assay: Antifungal microdilution MIC test; conditions: comparative test
Method: as §1, §2, §3, §4, §5, §6, §7

[8] = system: Trichophyton mentagrophytes ATCC 18484; assay: Antifungal microdilution MIC test; conditions: comparative test; for MIC: Trichophyton mentagrophytes, ATCC18484
Method: as §1, §2, §3, §4, §5, §6, §7

[9] = system: Aspergillus fumigatus DSM 819; assay: Antifungal microdilution MIC test; conditions: comparative test; for MIC: Aspergillus fumigatus, DSM819
Method: as §1, §2, §3, §4, §5, §6, §7

[10] = system: Aspergillus flavus ATCC 204304; assay: Antifungal microdilution MIC test; conditions: comparative test; for MIC: Aspergillus flavus, ATCC204304
Method: as §1, §2, §3, §4, §5, §6, §7

[11] = system: Cryptococcus neoformans; assay: Antifungal microdilution MIC test; conditions: Cryptococcus neoformans, comparative test
Method: as §1, §2, §3, §4, §5, §6, §7

[12] = system: Aspergillus fumigatus SU 56; assay: Antifungal microdilution MIC test; conditions: comparative test; for MIC: Aspergillus fumigatus, SU56
Method: as §1, §2, §3, §4, §5, §6, §7

[13] = system: Trichophyton rubrum DSM 16111; assay: Antifungal microdilution MIC test; conditions: DSM16111, comparative test
Method: as §1, §2, §3, §4, §5, §6, §7

[14] = system: Trichophyton tonsurans 264; assay: Antifungal microdilution MIC test; conditions: comparative test
Method: as §1, §2, §3, §4, §5, §6, §7

[15] = system: Scopulariopsis brevicaulis 34; assay: Antifungal microdilution MIC test; conditions: comparative test
Method: as §1, §2, §3, §4, §5, §6, §7

[16] = system: Fusarium solani strain 155; assay: Antifungal microdilution MIC test; conditions: comparative test
Method: as §1, §2, §3, §4, §5, §6, §7

[17] = system: Trichophyton interdigitale 251; assay: Antifungal microdilution MIC test; conditions: comparative test, incubation time 72 h
Method: as §1, §2, §3, §4, §5, §6, §7

[18] = system: Trichophyton interdigitale DSM4167; assay: Antifungal microdilution MIC test; conditions: comparative test
Method: as §1, §2, §3, §4, §5, §6, §7

[19] = system: Aspergillus terreus DSM 1958; assay: Antifungal microdilution MIC test; conditions: comparative test; for MIC: Aspergillus terreus, DSM1958
Method: as §1, §2, §3, §4, §5, §6, §7

[20] = system: Fusarium solani DSM 1164; assay: Antifungal microdilution MIC test; conditions: DSM1164, comparative test
Method: as §1, §2, §3
as §4, with “determined. […]” for “determined.”

[21] = system: Fusarium oxysporum 109; assay: Antifungal microdilution MIC test; conditions: comparative test
Method: as §1, §2, §3
as §4, with “determined. […]” for “determined.”

[22] = system: Candida krusei ATCC 6258; assay: Antifungal microdilution MIC test; conditions: Pichia kudriavzevii, ATCC6258, comparative test
Method: as §1, §2, §3
as §4, with “determined. […]” for “determined.”

[23] = system: Fusarium oxysporum DSM 841; assay: Antifungal microdilution MIC test; conditions: DSM841, comparative test
Method: as §1, §2, §3
as §4, with “determined. […]” for “determined.”

[24] = system: Candida glabrata ATCC 15545; assay: Antifungal microdilution MIC test; conditions: Nakaseomyces glabratus, ATCC15545, comparative test
Method: as §1, §2, §3
as §4, with “determined. […]” for “determined.”

[25] = system: 3T3-L1 murine embryonic fibroblast line; assay: Neutral red uptake toxicity test, 3T3-L1 fibroblasts; conditions: medium with serum
Method: Preliminary tests were conducted in the 3T3-L1 murine embryonic fibroblast line (ATCC, CL-173™), an immortalized line (highly tolerant cells). DMEM was used as the medium. 24 h after seeding and successful adhesion, polymers dissolved in the medium were added to the cells (the medium was first replaced with a serum-free medium in serum-free experiments), and viable cells were quantified after another 24 h using the neutral red uptake assay.
The toxicity of ciclopirox and terbinafine, two commercially used antifungal drugs, was evaluated in similar conditions (the same cell line, medium composition and exposure time).

MIC ([1]; incubation time 48 h): 0.25 µg/mL (≈ 0.858 µM) | MIC ([1]; incubation time 72 h): 0.25 µg/mL (≈ 0.858 µM) | MIC ([2]; incubation time 24 h): 2 µg/mL (≈ 6.86 µM) | MIC ([2]; incubation time 48 h): > 4 µg/mL | MIC ([3]; incubation time 48 h): 0.125 µg/mL (≈ 0.429 µM) | MIC ([3]; incubation time 72 h): 0.25 µg/mL (≈ 0.858 µM) | MIC ([4]; incubation time 48 h): 0.125 µg/mL (≈ 0.429 µM) | MIC ([4]; incubation time 72 h): 2 µg/mL (≈ 6.86 µM) | MIC ([5]; incubation time 24 h): > 4 µg/mL | MIC ([5]; incubation time 48 h): > 4 µg/mL | MIC ([6]; incubation time 24 h): > 4 µg/mL | MIC ([6]; incubation time 48 h): > 4 µg/mL | MIC ([7]; incubation time 48 h): 0.25 µg/mL (≈ 0.858 µM) | MIC ([7]; incubation time 72 h): 0.5 µg/mL (≈ 1.72 µM) | MIC ([8]; incubation time 24 h): 0.125 µg/mL (≈ 0.429 µM) | MIC ([8]; incubation time 48 h): 0.5 µg/mL (≈ 1.72 µM) | MIC ([8]; incubation time 72 h): 1 µg/mL (≈ 3.43 µM) | MIC ([9]; incubation time 24 h): > 4 µg/mL | MIC ([9]; incubation time 48 h): > 4 µg/mL | MIC ([10]; incubation time 24 h): 4 µg/mL (≈ 13.7 µM) | MIC ([10]; incubation time 48 h): > 4 µg/mL | MIC ([11]; incubation time 24 h): > 4 µg/mL | MIC ([11]; incubation time 48 h): > 4 µg/mL | MIC ([12]; incubation time 24 h): 4 µg/mL (≈ 13.7 µM) | MIC ([12]; incubation time 48 h): > 4 µg/mL | MIC ([13]; incubation time 24 h): 0.06 µg/mL (≈ 0.206 µM) | MIC ([13]; incubation time 48 h): 0.25 µg/mL (≈ 0.858 µM) | MIC ([13]; incubation time 72 h): 0.25 µg/mL (≈ 0.858 µM) | MIC ([14]; incubation time 48 h): 0.5 µg/mL (≈ 1.72 µM) | MIC ([14]; incubation time 72 h): 0.5 µg/mL (≈ 1.72 µM) | MIC ([15]; incubation time 24 h): > 4 µg/mL | MIC ([15]; incubation time 48 h): > 4 µg/mL | MIC ([16]; incubation time 24 h): > 4 µg/mL | MIC ([16]; incubation time 48 h): > 4 µg/mL | MIC [17]: 1 µg/mL (≈ 3.43 µM) | MIC ([18]; incubation time 48 h): 0.25 µg/mL (≈ 0.858 µM) | MIC ([18]; incubation time 72 h): 0.25 µg/mL (≈ 0.858 µM) | MIC ([19]; incubation time 24 h): 2 µg/mL (≈ 6.86 µM) | MIC ([19]; incubation time 48 h): > 4 µg/mL | MIC ([20]; incubation time 24 h): > 4 µg/mL | MIC ([20]; incubation time 48 h): > 4 µg/mL | MIC ([21]; incubation time 24 h): > 4 µg/mL | MIC ([21]; incubation time 48 h): > 4 µg/mL | MIC ([22]; incubation time 24 h): > 4 µg/mL | MIC ([22]; incubation time 48 h): > 4 µg/mL | MIC ([23]; incubation time 24 h): > 4 µg/mL | MIC ([23]; incubation time 48 h): > 4 µg/mL | MIC ([24]; incubation time 24 h): > 4 µg/mL | MIC ([24]; incubation time 48 h): > 4 µg/mL
SMILES: CN(C/C=C/C#CC(C)(C)C)Cc1cccc2ccccc12 [Terbinafine, terbinafine]
concentration with (clear) growth suppression ([2]; incubation time 48 h): 2 mg/L | concentration with marginal growth ([8]; incubation time 48 h): 0.25 mg/L | concentration with growth suppression ([9]; incubation time 24 h): 2 mg/L | concentration with growth suppression ([10]; incubation time 48 h): 2 mg/L | concentration with growth suppression ([12]; incubation time 48 h): >4 mg/L | concentration with growth suppression ([19]; incubation time 48 h): 2 mg/L | concentration at which the number of viable cells decreased to less than 50% ([25]; 24 h exposure): 25000 ng/mL | viable cells ([25]; concentrations of 50, 75 and 100 μg/mL, 24 h): ≤ 10%
